Assay results published in US20250288561A1, “NEZULCITINIB FOR DELIVERY BY NEBULIZED ORAL INHALATION” (THERAVANCE BIOPHARMA R&D IP, LLC, priority 2022, published 2025).

Legend:
JAK2 = JAK2 (Homo sapiens, UniProt O60674); assay: JAK enzyme inhibition; assay type: biochemical
IFNγ secretion = assay: Mixed lymphocyte reaction assay; assay type: cell-based
Description: The mixed lymphocyte reaction assay is an in-vitro assay that mimics transplant rejection.

Sulfation metabolism = assay type: in vitro ADME
[1] = Phase 1 open-label study: safety and tolerability of single inhaled nezulcitinib doses under supplemental oxygenation scenarios; assay type: in vivo, human
Description: Part B: assessed the safety and tolerability of nezulcitinib following single inhaled doses administered in the setting of various supplemental oxygenation scenarios in healthy participants.
Safety was monitored through physical examinations including, at a minimum, examination of respiratory, cardiovascular, and gastrointestinal systems, with the option for further focused examination of additional systems as necessary based on reported symptoms/AEs, vital signs, 12-lead safety ECGs, spirometry, body weight monitoring, pulse oximetry, clinical laboratory tests (including, but not limited to, hematology, clinical chemistry profile, coagulation, and urinalysis), and AEs.
AEs were coded using the most current version of Medical Dictionary for Regulatory Activities (MedDRA®).
Summaries of administration-emergent adverse events (AEAEs) were presented by SOC, preferred term, and the frequency and percentage of participants reporting each observed event. The frequency of participants who experience AEAEs was summarized overall and by study part and administration. AEs were also summarized by relationship to administration (study drug) and severity.
All clinical laboratory results, 12-lead safety ECGs, spirometry measurements, pulse oximetry, vital signs measurements, and their change from baseline, were summarized by study part, administration, and time point of collection.
Safety (i.e., physical examinations, vital signs, 12-lead safety ECGs, spirometry, clinical laboratory tests, and AEs) were assessed throughout the study; blood, urine, and expired air samples were collected for safety assessments. Blood oxygenation levels were monitored via pulse oximetry prior to and during administration of supplemental oxygen. Discontinued participants were not replaced.

Abl2 = Abl2 (Homo sapiens, UniProt P42684); assay: Abelson kinase inhibition; assay type: biochemical
Sequence of Abl2 (P42684 whole entry): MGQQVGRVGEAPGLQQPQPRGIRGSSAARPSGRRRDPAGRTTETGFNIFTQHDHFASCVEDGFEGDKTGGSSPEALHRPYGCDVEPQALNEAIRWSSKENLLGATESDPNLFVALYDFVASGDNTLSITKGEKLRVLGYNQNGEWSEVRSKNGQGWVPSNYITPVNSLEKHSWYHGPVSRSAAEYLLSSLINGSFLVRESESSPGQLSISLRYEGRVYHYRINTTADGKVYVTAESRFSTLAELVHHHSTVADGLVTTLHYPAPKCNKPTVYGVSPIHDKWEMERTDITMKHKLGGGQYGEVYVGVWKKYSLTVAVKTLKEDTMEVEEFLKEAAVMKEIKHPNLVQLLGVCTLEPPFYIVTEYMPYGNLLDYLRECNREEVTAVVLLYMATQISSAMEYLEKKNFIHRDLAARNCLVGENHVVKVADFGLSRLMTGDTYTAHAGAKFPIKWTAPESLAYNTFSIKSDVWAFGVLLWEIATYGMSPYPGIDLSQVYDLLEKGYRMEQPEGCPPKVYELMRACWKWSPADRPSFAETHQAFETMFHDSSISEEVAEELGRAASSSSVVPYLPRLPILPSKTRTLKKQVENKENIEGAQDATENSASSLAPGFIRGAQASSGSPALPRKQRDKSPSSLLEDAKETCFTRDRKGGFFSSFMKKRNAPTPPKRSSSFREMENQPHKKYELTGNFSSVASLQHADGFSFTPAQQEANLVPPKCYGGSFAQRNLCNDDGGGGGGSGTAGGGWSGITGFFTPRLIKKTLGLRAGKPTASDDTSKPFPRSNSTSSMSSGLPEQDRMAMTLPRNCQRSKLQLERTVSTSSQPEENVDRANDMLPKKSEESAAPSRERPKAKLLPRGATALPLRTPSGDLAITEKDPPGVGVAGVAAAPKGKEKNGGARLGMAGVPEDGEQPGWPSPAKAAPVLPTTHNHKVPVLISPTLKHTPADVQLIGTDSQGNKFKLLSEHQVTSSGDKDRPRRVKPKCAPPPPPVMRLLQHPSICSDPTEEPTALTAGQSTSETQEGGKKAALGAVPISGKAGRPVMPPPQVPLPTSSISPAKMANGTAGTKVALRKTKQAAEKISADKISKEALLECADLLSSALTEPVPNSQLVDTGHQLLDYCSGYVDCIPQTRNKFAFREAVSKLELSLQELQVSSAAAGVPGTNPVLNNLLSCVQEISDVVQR

[2] = Earlier phase 1 clinical trial: safety, tolerability, hematological and lipid changes; assay type: in vivo, human
Description: (§1) Compound 1 was evaluated in a phase 1 clinical trial and dosed in humans through nebulized inhalation at 1 mg, 3 mg, and 10 mg for up to 7 days. […] The pharmacokinetics of inhaled compound 1 are consistent with low plasma exposures after inhaled administration. […] Additionally, absolute NK cell counts were evaluated after multiple-dosing to assess the potential for systemic pharmacologic effects associated with JAK inhibition by compound 1. […] The lack of reduction in NK cell counts is also consistent with the lack of systemic JAK inhibition. […] Other systemically mediated hematological changes associated with JAK inhibition, including neutrophil and hemoglobin reductions as well as lipid changes, were not observed with inhaled administration of compound 1.
(§2) The selected dose of 3 mg in the present study was consistent with the dose in a recently completed Phase 2 study. In addition, the 3 mg dose ensured adequate characterization of the nezulcitinib PK profile. Dose levels up to 9 mg of nezulcitinib were also evaluated (Administration D2). This dose level was within the range of doses tested previously (up to 10 mg of nezulcitinib) in healthy participants and those with COVID-19 in previous clinical studies.

[3] = Phase 2 clinical study in subjects infected with COVID: safety; assay type: in vivo, human
Description: Compound 1 was well-tolerated. Adverse events and serious adverse events occurred in 34.0% and 9.7% of subjects treated with compound 1, and 41.2% and 15.7% of subjects treated with placebo, respectively. Adverse events of liver abnormalities or disease occurred in 9.7% and 7.8% of subjects treated with compound 1 and placebo, respectively. Serious infections and venous thromboembolism occurred in 1.0% and none of the subjects treated with compound 1, and 2.0% and 4.9% in subjects treated with placebo, respectively.

[4] = Earlier phase 1 clinical trial, nebulized inhalation: plasma pharmacokinetics; assay type: in vivo, human; conditions: for maximal plasma exposure, fold lower than the protein-adjusted JAK IC50: inhaled
Description: as §1, §2

NK cells = assay: Earlier phase 1 clinical trial: absolute NK cell counts after multiple dosing; assay type: in vivo, human; conditions: any dose level (1, 3, or 10 mg)
Description: as §1

Sequence of JAK2 (O60674 whole entry): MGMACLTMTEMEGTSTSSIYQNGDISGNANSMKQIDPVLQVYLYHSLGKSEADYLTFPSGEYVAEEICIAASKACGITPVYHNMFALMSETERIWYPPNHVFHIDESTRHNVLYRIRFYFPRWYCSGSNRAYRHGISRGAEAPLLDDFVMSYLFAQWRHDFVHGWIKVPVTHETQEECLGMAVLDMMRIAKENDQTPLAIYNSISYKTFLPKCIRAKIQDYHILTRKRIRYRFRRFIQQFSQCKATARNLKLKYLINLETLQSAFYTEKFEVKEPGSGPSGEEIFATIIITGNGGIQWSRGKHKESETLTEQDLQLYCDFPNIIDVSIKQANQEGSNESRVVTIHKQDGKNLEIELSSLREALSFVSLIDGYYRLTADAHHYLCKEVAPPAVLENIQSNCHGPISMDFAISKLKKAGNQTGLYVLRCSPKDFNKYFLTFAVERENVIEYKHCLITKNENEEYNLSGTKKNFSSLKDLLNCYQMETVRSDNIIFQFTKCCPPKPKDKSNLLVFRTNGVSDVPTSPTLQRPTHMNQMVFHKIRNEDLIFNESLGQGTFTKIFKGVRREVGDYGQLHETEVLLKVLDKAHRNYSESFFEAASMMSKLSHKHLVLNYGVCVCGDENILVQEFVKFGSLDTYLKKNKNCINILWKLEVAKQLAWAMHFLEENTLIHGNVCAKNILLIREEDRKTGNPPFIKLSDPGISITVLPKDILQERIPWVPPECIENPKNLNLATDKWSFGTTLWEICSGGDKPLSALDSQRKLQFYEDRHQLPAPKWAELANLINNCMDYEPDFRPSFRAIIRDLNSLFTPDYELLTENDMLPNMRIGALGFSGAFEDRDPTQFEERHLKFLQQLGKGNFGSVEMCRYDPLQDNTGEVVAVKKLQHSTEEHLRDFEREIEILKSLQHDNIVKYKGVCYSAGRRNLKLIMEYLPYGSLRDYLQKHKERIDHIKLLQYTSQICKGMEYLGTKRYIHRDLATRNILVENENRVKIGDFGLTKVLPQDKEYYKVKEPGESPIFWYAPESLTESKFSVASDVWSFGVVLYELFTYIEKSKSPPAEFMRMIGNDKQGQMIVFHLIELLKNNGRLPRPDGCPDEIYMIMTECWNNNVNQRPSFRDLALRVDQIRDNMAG

With `CCc1cc(O)ccc1-c1ccc2c(-c3nc4c([nH]3)CN(C(C)C)[C@H](C(=O)N3CC(N(C)C)C3)C4)n[nH]c2c1` [Compound 1, (S)-(3-(dimethylamino)azetidin-1-yl)(2-(6-(2-ethyl-4-hydroxyphenyl)-1H-indazol-3-yl)-5-isopropyl-4,5,6,7-tetrahydro-3H-imidazo[4,5-c]pyridin-6-yl)methanone] the “inhibition of JAK2” value (JAK2) was “potent inhibitor”, the “inhibition of IFNγ secretion” value (IFNγ secretion) was “effectively inhibit” and the “plasma concentrations with low-flow nasal oxygen therapy compared to healthy subjects without supplemental oxygen therapy” value (human, in vivo) was “similar”. For the same compound, the plasma exposure (phase 2) was “low”, the “sulfation metabolism compared to corresponding fluorinated analog” value (Sulfation metabolism) was “significantly less sulfation metabolism” and the “adverse events, subjects” value ([1]; 2 of 14 subjects, nasal congestion, epistaxis, considered not related to study drug) was 14.3%. The “safety laboratory measures, electrocardiograms, vital signs, pulse oximetry, spirometry” value ([1]; all administrations) was “no clinically relevant changes”, the “severity of adverse events” value ([1]; all adverse events) was “mild severity” and the “inhibition of Abl2” value (Abl2) was “potently inhibit”. The “neutrophil and hemoglobin reductions, lipid changes” value ([2]; inhaled administration) was “not observed”, the safety and tolerability ([2]; single and multiple doses of 1, 3, and 10 mg, healthy adult participants) was “safe and well tolerated” and the tolerability [3] was “well-tolerated”. The “serious infections, subjects” value ([3]; placebo 2.0%) was 1.0%, the “venous thromboembolism, subjects” value ([3]; placebo 4.9%) was “none” and the “adverse events of liver abnormalities or disease, subjects” value ([3]; placebo 7.8%) was 9.7%. For the same compound, the “serious adverse events, subjects” value ([3]; placebo 15.7%) was 9.7%, the “adverse events, subjects” value ([3]; placebo 41.2%) was 34.0% and the “maximal plasma exposure, fold lower than the protein-adjusted JAK IC50” value ([4]; dose level 3 mg) was “about 20 fold”. For the same compound, the “maximal plasma exposure, fold lower than the protein-adjusted JAK IC50” value ([4]; dose level 10 mg) was “about 7 fold”, the “plasma Cmax relative to the binding-corrected JAK IC50” value ([4]; nebulized inhalation at 1 mg, 3 mg and 10 mg for up to 7 days) was “well under the binding-corrected JAK IC50” and the “dose proportionality of systemic exposure (AUC0-24) and Cmax” value ([4]; single and multiple doses, 1 to 10 mg) was “increased in a dose proportional manner”. The “absolute NK cell counts relative to baseline” value (NK cells) was “No reductions in NK cells were observed”.
